Results as given in US20250011365A1, “ECHINOCANDIN-BASED DRUG, AND PREPARATION METHOD THEREFOR AND USE THEREOF” (Shenzhen Sungening Biological Co., Ltd, priority 2023, published 2025).
Converted amounts (≈) assume the structure as drawn. Numbered stars: 1 amine (or outer) side, 2 acyl side, 3 side chain; on linkers, the order of the positions; unused ones are H or OH. Bridge positions count the residues as written; N and C are the ends. Square brackets hold non-standard residues; d marks the D form. Peptide text beside a SMILES is read from it. * marks the point of attachment. Orn(4R-OH,5R-OCH2CH2NMe3+) = C[N+](C)(C)CCO[C@@H](N[*:3])[C@H](O)C[C@H](N[*:1])C(=O)[*:2]; hTyr(3S-OH,4S-OH) = N[C@H](C(=O)O)[C@H](O)[C@@H](O)c1ccc(O)cc1; X2 = CCCCCOc1ccc(C#Cc2ccc3cc(C(=O)*)ccc3c2)c(F)c1F; X4 = CCCCCOc1c(F)cc(C#Cc2ccc3cc(C(=O)*)ccc3c2)cc1F; Pro(3S-OH,4S-Me) = C[C@H]1CN[C@H](C(=O)O)[C@H]1O; X3 = CCCCCOc1ccc(C#Cc2ccc3cc(C(=O)*)ccc3c2)cc1F; Hyp = O=C(O)[C@@H]1C[C@@H](O)CN1

Experiments:
Assay type in all cases: cell-based
[1] = test system: Aspergillus fumigatus ATCC 204305; assay: MEC assay, Aspergillus standard strain (CLSI M38-A2); conditions: 21-26 h, 28° C.
Method: After gradient dilution of test compounds, an MIC assay was performed on a Candida standard strain, and an MEC assay was performed on an Aspergillus standard strain.
The colonies on the plate were covered with 0.85% physiological saline (1 mL) or sterile water (polysorbate 20 was added to a final concentration of 0.1%-0.01%). […] The resuspension of spore hyphae was transferred to a sterile test tube, and left to stand for 3-5 min to precipitate heavier particles. The homogeneous suspension on the upper layer was transferred to a new sterile test tube, and the tube was capped closely, and subjected to vortex shaking for 15 s (note: the suspension can produce an aerosol when the cap is reopened). The concentration of the suspension was adjusted to an OD value of 0.09-0.13 at 530 nm by using a spectrophotometer. […] Within 2 h after dilution, 100 μL of the diluted suspension was added to each well in a 96-well plate (the concentration of spores in the final drug sensitive plate should be 0.4×10^4-5×10^4 CFU/mL).
In order to accurately determine MEC value, vortex oscillation should not be allowed before reading the plate.

[2] = test system: Pichia guilliermondii ATCC 6260; assay: MIC assay, yeast-type fungi (CLSI M27-A3); conditions: Meyerozyma guilliermondii, ATCC6260, 24 h, 35° C.
Method: (§1) After gradient dilution of test compounds, an MIC assay was performed on a Candida standard strain, and an MEC assay was performed on an Aspergillus standard strain. […] A cryopreserved strain was passaged at least 2 times. A single colony was picked and resuspended in a physiological saline or sterile water tube, and the tube was subjected to vortex shaking. The Candida suspension was adjusted to 0.5 McF (1×10^6-5×10^6 CFU/mL) at a wavelength of 530 nm by using a spectrophotometer. After being diluted 50 times with physiological saline, the Candida suspension was diluted 20 times with 1×RPMI 1640 broth (1×10^3-5×10^3 CFU/mL). 10 μL of the diluted Candida suspension was coated on an SDA plate for colony counting, with a range of about 10-50 single colonies. After a prepared drug sensitive plate was completely dissolved at room temperature, the Candida suspension was added to the 96-well plate by using a multi-channel pipettor at 100 μL/well. At this time, the concentration of Candida in each well should be 0.5×10^3-2.5×10^3 CFU/mL. A yeast-type fungus assay plate was placed in an incubator, and incubated for 24 h at 35° C. and 85% humidity, and then the MIC values were read. For echinocandin-based drugs, Aspergillus was incubated for 21-26 h at 28° C., and then the MEC results were read. Yeast-type fungi: A 96-well plate was attached with a disposable parafilm, shaken for uniformly mixing, and observed with naked eyes by using a plate reader microscope. […] Pictures were taken and saved by using an automated plate reader.

C. tropicalis ATCC 750 = assay: MIC assay, Candida standard strain (CLSI M27-A3); conditions: ATCC750, 24 h, 35° C.
Method: as §1

[3] = test system: Candida albicans ATCC MYA-1023; assay: MIC assay, Candida standard strain (CLSI M27-A3); conditions: 24 h, 35° C.
Method: as §1

[4] = test system: Candida albicans CICC 1943; assay: MIC assay, Candida standard strain (CLSI M27-A3); conditions: CICC1943, 24 h, 35° C.
Method: as §1

[5] = test system: Candida albicans ATCC 10231; assay: MIC assay, Candida standard strain (CLSI M27-A3); conditions: ATCC10231, 24 h, 35° C., >50% growth inhibition
Method: as §1

[6] = test system: Candida albicans ATCC 64124; assay: MIC assay, Candida standard strain (CLSI M27-A3); conditions: ATCC64124, 24 h, 35° C.
Method: as §1

[7] = test system: Candida albicans ATCC MYA-574; assay: MIC assay, Candida standard strain (CLSI M27-A3); conditions: 24 h, 35° C.
Method: as §1

C. krusei ATCC 6258 = assay: MIC assay, Candida standard strain (CLSI M27-A3); conditions: Pichia kudriavzevii, ATCC6258; C. krusei ATCC 6258 (quality-control strain); 24 h, 35° C.
Method: as §1

[8] = test system: Candida albicans ATCC 14053; assay: MIC assay, Candida standard strain (CLSI M27-A3); conditions: ATCC14053, 24 h, 35° C.
Method: as §1

[9] = test system: Candida albicans ATCC MYA-4788; assay: MIC assay, Candida standard strain (CLSI M27-A3); conditions: 24 h, 35° C.
Method: as §1

C. glabrata ATCC 15126 = assay: MIC assay, Candida standard strain (CLSI M27-A3); conditions: Nakaseomyces glabratus, ATCC15126, 24 h, 35° C.
Method: as §1

[10] = test system: C. parapsilosis ATCC 22019; assay: MIC assay, Candida standard strain (CLSI M27-A3); conditions: Lodderomyces parapsilosis, ATCC22019; C. parapsilosis ATCC 22019 (quality-control strain); 24 h, 35° C.
Method: as §1

[11] = test system: Candida albicans ATCC 90029; assay: MIC assay, Candida standard strain (CLSI M27-A3); conditions: ATCC90029, 24 h, 35° C.
Method: as §1

[12] = test system: Candida albicans CMCC 98001; assay: MIC assay, Candida standard strain (CLSI M27-A3); conditions: CMCC98001, 24 h, 35° C.
Method: as §1

[13] = test system: Candida albicans ATCC 18804; assay: MIC assay, Candida standard strain (CLSI M27-A3); conditions: ATCC18804, 24 h, 35° C.
Method: as §1

[14] = test system: Candida albicans ATCC 90028; assay: MIC assay, Candida standard strain (CLSI M27-A3); conditions: ATCC90028, 24 h, 35° C., >50% growth inhibition
Method: as §1

[15] = test system: Candida albicans ATCC MYA-427; assay: MIC assay, Candida standard strain (CLSI M27-A3); conditions: 24 h, 35° C.
Method: as §1

[16] = test system: Candida albicans ATCC 76485; assay: MIC assay, Candida standard strain (CLSI M27-A3); conditions: ATCC76485, 24 h, 35° C.
Method: as §1

[17] = test system: Candida albicans ATCC MYA-2876; assay: MIC assay, Candida standard strain (CLSI M27-A3); conditions: 24 h, 35° C.
Method: as §1

[18] = test system: Cryptococcus neoformans ATCC 208821; assay: MIC assay, yeast-type fungi (CLSI M27-A3); conditions: ATCC208821, 24 h, 35° C.

Compound | MEC [1] [µg/mL] | MIC [2] [µg/mL] | MIC (C. tropicalis ATCC 750) [µg/mL] | MIC [3] [µg/mL] | MIC [4] [µg/mL] | MIC [5] [µg/mL] | MIC [6] [µg/mL] | MIC [7] [µg/mL] | MIC (C. krusei ATCC 6258) [µg/mL] | MIC [8] [µg/mL] | MIC [9] [µg/mL] | MIC (C. glabrata ATCC 15126) [µg/mL] | MIC [10] [µg/mL] | MIC [11] [µg/mL] | MIC [12] [µg/mL] | MIC [13] [µg/mL] | MIC [14] [µg/mL] | MIC [15] [µg/mL] | MIC [16] [µg/mL] | MIC [17] [µg/mL] | further results
CCCCCOc1c(F)cc(C#Cc2ccc3cc(C(=O)N[C@H]4C[C@@H](O)[C@@H](OCC[N+](C)(C)C)NC(=O)[C@@H]5[C@@H](O)[C@@H](C)CN5C(=O)[C@H]([C@@H](C)O)NC(=O)[C@H]([C@H](O)[C@@H](O)c5ccc(O)cc5)NC(=O)[C@@H]5C[C@@H](O)CN5C(=O)[C@H]([C@@H](C)O)NC4=O)ccc3c2)cc1F [Example 14] (X4-[Orn(4R-OH,5R-OCH2CH2NMe3+)]T[Hyp][hTyr(3S-OH,4S-OH)]T[Pro(3S-OH,4S-Me)]; lactam 1-C) | ≤0.015 | 0.25 | ≤ 0.015 | ≤ 0.015 | 0.03 | 0.03 | ≤ 0.015 | ≤ 0.015 | 0.06 | ≤ 0.015 | ≤ 0.015 | 0.06 | 0.25 | ≤ 0.015 | ≤ 0.015 | ≤ 0.015 | ≤ 0.015 | 0.03 | ≤ 0.015 | ≤ 0.015 | MIC [18]: 8 µg/mL
CC[C@H](C)C[C@H](C)CCCCCCCCC(=O)N[C@H]1C[C@@H](O)[C@@H](NCCN)NC(=O)[C@@H]2[C@@H](O)CCN2C(=O)[C@H]([C@H](O)CCN)NC(=O)[C@H]([C@H](O)[C@@H](O)c2ccc(O)cc2)NC(=O)[C@@H]2C[C@@H](O)CN2C(=O)[C@H]([C@@H](C)O)NC1=O [Caspofungin, reference compound] | 0.25 | 0.12 (≈ 0.11 µM) | 0.06 (≈ 0.0549 µM) | 0.06 (≈ 0.0549 µM) | 0.06 (≈ 0.0549 µM) | 0.12 (≈ 0.11 µM) | 0.12 (≈ 0.11 µM) | ≤ 0.015 | 0.25 (≈ 0.229 µM) | 0.03 (≈ 0.0274 µM) | 0.06 (≈ 0.0549 µM) | 0.12 (≈ 0.11 µM) | 0.5 (≈ 0.457 µM) | 0.06 (≈ 0.0549 µM) | 0.06 (≈ 0.0549 µM) | 0.06 (≈ 0.0549 µM) | 0.12 (≈ 0.11 µM) | 0.12 (≈ 0.11 µM) | 0.06 (≈ 0.0549 µM) | 0.06 (≈ 0.0549 µM) | MIC [18]: 16 µg/mL (≈ 14.6 µM)
CCCCCOc1ccc(C#Cc2ccc3cc(C(=O)N[C@H]4C[C@@H](O)[C@@H](OCC[N+](C)(C)C)NC(=O)[C@@H]5[C@@H](O)[C@@H](C)CN5C(=O)[C@H]([C@@H](C)O)NC(=O)[C@H]([C@H](O)[C@@H](O)c5ccc(O)cc5)NC(=O)[C@@H]5C[C@@H](O)CN5C(=O)[C@H]([C@@H](C)O)NC4=O)ccc3c2)cc1F [Example 10] (X3-[Orn(4R-OH,5R-OCH2CH2NMe3+)]T[Hyp][hTyr(3S-OH,4S-OH)]T[Pro(3S-OH,4S-Me)]; lactam 1-C) | ≤0.015 | 0.25 | ≤ 0.015 | ≤ 0.015 | 0.03 | 0.03 | ≤ 0.015 | ≤ 0.015 | 0.06 | ≤ 0.015 | ≤ 0.015 | 0.06 | 0.5 | ≤ 0.015 | ≤ 0.015 | ≤ 0.015 | ≤ 0.015 | 0.03 | ≤ 0.015 | ≤ 0.015 | MIC [18]: 8 µg/mL
CCCCCOc1ccc(C#Cc2ccc3cc(C(=O)N[C@H]4C[C@@H](O)[C@@H](OCC[N+](C)(C)C)NC(=O)[C@@H]5[C@@H](O)[C@@H](C)CN5C(=O)[C@H]([C@@H](C)O)NC(=O)[C@H]([C@H](O)[C@@H](O)c5ccc(O)cc5)NC(=O)[C@@H]5C[C@@H](O)CN5C(=O)[C@H]([C@@H](C)O)NC4=O)ccc3c2)c(F)c1F [Example 8] (X2-[Orn(4R-OH,5R-OCH2CH2NMe3+)]T[Hyp][hTyr(3S-OH,4S-OH)]T[Pro(3S-OH,4S-Me)]; lactam 1-C) | 0.03 | 0.25 | ≤ 0.015 | ≤ 0.015 | 0.03 | 0.03 | ≤ 0.015 | ≤ 0.015 | 0.12 | ≤ 0.015 | ≤ 0.015 | 0.06 | 0.5 | ≤ 0.015 | ≤ 0.015 | ≤ 0.015 | ≤ 0.015 | 0.03 | ≤ 0.015 | ≤ 0.015 | MIC [18]: 8 µg/mL
